Tests used:
[1] = system: human peritoneal mesothelial cell (HPMC); test: HPMC proliferation, Alamar Blue and MTT assay; format: cell-based; conditions: 48 hours and 72 hours; over the tested concentrations in supplemented M199
Experimental: The effect of a phospholipid prepared as described in Example 1 (and/or its constituent compounds) to induce human peritoneal mesothelial cell proliferation was assessed using an Alamar Blue™ assay and an MTT assay.
The Alamar Blue™ assay is designed to measure the proliferation of various cell types by measuring the ability of the cells to metabolise and reduce a REDOX indicator (Alamar Blue™). Reduction of the REDOX indicator results in a change in its fluorescent activity. Therefore the fluorescent activity measured is proportional to cell proliferation.
The MTT Assay measures the proliferations of various cells and is based on the mitochondrial conversion of tetrazolium salt 3-[4,5-dimethyl-thiazol-2-yl]-2,5-diphenyltetrazium bromide (MTT), into an insoluble formazan salt. The resultant colour change is directly related to the number of viable cells.
As described in Morgan L W et al (“Glucose degradation products (GDP) retard re-mesothelialisation independently of D-glucose concentration.” Kidney Int 64:1854-1866, 2003), primary HPMC are isolated from omental tissue biopsies donated by consenting patients undergoing elective abdominal surgery. Cells were grown to approximately 60% confluence in 96 well plates (Falcon) and used at passage 2. All cells were growth arrested in serum free M199 for 24 hours prior to use.
The supplemented M199 medium was prepared as follows. Earle's salt medium M199 was supplemented with 100μ/ml penicillin, 100 μg/ml streptomycin, 2 mM glutamine, 5 μg/ml insulin, 5 μg/ml transferrin and 0.4 μg/ml hydrocortisone and 2 mmol/L N-2-hydroxyethylpiperazine-N′-2ethanesulfonic acid.
The phospholipid prepared as described in Example 1 was prepared as follows. […]
The growth medium was aspirated from each well and then the well was washed once using 200 μl per well of supplemented M199. […] The fluorescent activity of Alamar Blue™ at 540 nm (wavelength) was measured using a Dynex Revalation 96-multiwell plate reader. […]

HPMC = HPMC ATP bioluminescence assay; format: cell-based, human; conditions: 72 hours
Experimental: The viability of HPMC after stimulation with FCS, phospholipid prepared according to Example 1 (Vibrated and Non-vibrated), lysophosphatidic acid (LPA), DPPC, DPPC/LPA, POPC, Curosurf, egg-PG (EPG) and the three Intralipid™ products was determined using an ATP assay. This assay measures the light emitted during the ATP dependant oxidation of luciferin in order to accurately quantify the ATP concentration.
As described in Example 3, primary HPMC are isolated from omental tissue biopsies donated by consenting patients undergoing elective abdominal surgery. Cells are grown to approximately 60% confluence in 96 well plates (Falcon) and used at passage 2. All cells are growth arrested in serum free M199 for 24 hours prior to use.
An ATP Bioluminescence Assay Kit CLS II (Roche Diagnostics, Cat No 1 699 695, 11857300) was used. It contains ATP Standard, Luciferase and distilled water. A 10 mM EDTA solution was prepared by dissolving 1.8612 g EDTA (Fischer Scientific, Code D/0650/60, Batch 0447430, Mr-372.24) in 500 ml H2O (or 3.7224 g in 1 litre). A BAC-extract solution was prepared by dissolving 1 g Benzalkonium Chloride (Sigma-Aldrich, Cat:-23, 442-7, Lot S22104-334) in 1 litre of 10 mM EDTA. […]
To mix, rotate the bottle carefully. • 2) Make up an ATP standard solution having a base concentration of 1.65 μM ATP. […] Use distilled water as the control. • 4) Set the Fluostar Optima plate reader to measure luminescence. Set the Fluostar Optima plate reader pump to inject 20 μl of luciferase into each of the required wells. • 5) Place the plate into the plate reader and measure the relative light units (RLU). • 6) Prepare a standard curve such as that shown in FIG. 16 by plotting a graph of RLU against ATP concentration.
96 well plates from the HPMC proliferation study were defrosted. […] The ATP concentrations were calculated from the RLU of the samples using the standard curve. As an alternative to using an ATP standard curve, data can be normalised to the un-stimulated control and expressed as “ATP (% of control)”.

Compound: CCCCCCCC/C=C\CCCCCCCC(=O)O[C@H](COC(=O)CCCCCCCCCCCCCCC)COP(=O)([O-])OCC[N+](C)(C)C [POPC, Palmitoyl oleoyl phosphatidyl choline]
- HPMC proliferation compared to the negative control [1]: no significant stimulation of HPMC proliferation
- HPMC proliferation by ATP assay compared to the negative control (HPMC; 0.0875 mg/ml, FIG. 11G): increased HPMC proliferation

Compound: Lysophosphatidic acid [LPA]
- HPMC proliferation compared to the negative control [1]: no significant stimulation of HPMC proliferation
- HPMC proliferation by ATP assay (ATP % of control) compared to the negative control (HPMC; single well, over the tested concentrations): no increase of HPMC proliferation
